Target: wild type PKM2 (Homo sapiens, UniProt P14618)
Assay: PKM2 Assay (LDH/NADH-coupled, absorbance at 340 nm)
Format: biochemical
Conditions: wild type PKM2 activation; 60 min preincubation at 25° C.; ADP 0.4 mM, PEP 0.11 mM; read-out: PKM2 WT AC50
Procedure: A compound described herein may be tested for its ability to activate PKM2. For simplicity, the activation activity of these compounds is represented as an AC50 in Table 2. In Tables 2, a compound described herein may have an AC50 of wild type PKM2.
PKM2 enzyme stock solution was diluted to prepare a 1.11× Reaction Mix (without ADP). 1 μL of test compound was first added to the wells followed by 40 μL of 1.11× Reaction Mix (without ADP) and incubated at room temperature (25° C.) for 60 min. The reaction was initiated with 10 μL ADP (0.4 mM final concentration), bringing the final Reaction Mix to 1×, and the reaction progress was measured as changes in absorbance at 340 nm wavelength at room temperature.
Test compound preparation: Test compounds were prepared at 50× final concentration in DMSO. 1 to 3 dilutions were made for 11 points (for example 50 μL of 5000 μM compound was added to 100 μL 100% DMSO to yield a 1667 μM, 50 μL of this added to 100 μL DMSO to yield 556 μM, and so forth). The compounds were added to the assay as a 1 to 50 dilution (1 μL in 50 μL) to yield a top concentration of 100 μM, decreasing 3-fold for 11 points.
Reaction Mix: PKM2 (5 ng/well, 0.1 μg/ml), ADP (0.4 mM), PEP (0.11 mM), NADH (180 μM), LDH (0.005 U/μL, Sigma #L3888), 1 mM DTT, 0.03% BSA in 1× Reaction Buffer
Reaction Buffer: 100 mM KCl, 50 mM Tris pH 7.5, 5 mM MgCl2.

wild type PKM2, sequence (P14618 whole entry): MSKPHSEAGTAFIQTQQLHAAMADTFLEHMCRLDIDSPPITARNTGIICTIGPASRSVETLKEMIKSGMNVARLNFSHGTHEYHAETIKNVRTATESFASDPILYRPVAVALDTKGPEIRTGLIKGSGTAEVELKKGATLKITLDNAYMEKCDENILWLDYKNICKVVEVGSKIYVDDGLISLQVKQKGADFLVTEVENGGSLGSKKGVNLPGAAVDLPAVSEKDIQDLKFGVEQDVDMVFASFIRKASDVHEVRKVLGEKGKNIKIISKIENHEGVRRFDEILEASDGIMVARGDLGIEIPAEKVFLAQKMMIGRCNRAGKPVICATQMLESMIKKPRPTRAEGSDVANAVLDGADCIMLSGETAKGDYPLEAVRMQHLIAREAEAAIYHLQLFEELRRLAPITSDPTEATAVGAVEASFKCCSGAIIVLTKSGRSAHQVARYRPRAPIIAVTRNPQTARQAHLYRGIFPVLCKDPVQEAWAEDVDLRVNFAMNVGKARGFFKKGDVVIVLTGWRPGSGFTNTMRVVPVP

Row | SMILES | AC50 [nM]
1 | Cn1c2nc(Cc3csc(CO)n3)sc2c2cnn(Cc3cc[nH]n3)c(=O)c21 [Compound 90] | < 300
2 | COc1ccccc1Cn1ncc2c3sc(C)nc3n(C)c2c1=O [Compound 3] | 301 to 800
3 | CCn1c2nc(Cc3cc[nH]n3)sc2c2cnn(Cc3ccccc3)c(=O)c21 [Compound 138] | > 800
4 | CCOC(c1cscn1)c1nc2c(s1)c1cnn(Cc3c[nH]nn3)c(=O)c1n2C (stereo not drawn) [Compound 114] | > 800
5 | Cn1c2nc(Cc3cc[nH]n3)sc2c2cnn(Cc3n[nH]cc3F)c(=O)c21 [Compound 105] | < 300
6 | CC(=O)c1cccc(CC(c2cc[nH]n2)c2nc3c(s2)c2cnn(Cc4cccc(C(C)=O)c4)c(=O)c2n3C)c1 (stereo not drawn) [Compound 71] | > 800
7 | Cn1cc(CC(N)=O)c(Cn2ncc3c4sc(Cc5cc[nH]n5)nc4n(C)c3c2=O)n1 [Compound 125] | > 800
8 | COc1cccc(Cn2ncc3c4sc(C(=O)c5cccc(O)c5)nc4n(C)c3c2=O)c1 [Compound 21] | < 300
9 | Cn1c2nc(Cc3ccccn3)sc2c2cnn(CC3CCOCC3)c(=O)c21 [Compound 139] | > 800
10 | CCOC(=O)c1cccc(Cn2ncc3c4sc(C)nc4n(C)c3c2=O)c1 [Compound 4] | 301 to 800
11 | Cn1c2nc(Cc3cnn[nH]3)sc2c2cnn(Cc3cccc4[nH]ncc34)c(=O)c21 [Compound 86] | < 300
12 | Cc1nc2c(s1)c1cnn(Cc3cccc(C(=O)O)c3)c(=O)c1n2C [Compound 5] | > 800
13 | Cn1c2nc(Cc3cc[nH]n3)sc2c2cnn(Cc3ccnc(N)n3)c(=O)c21 [Compound 134] | < 300
14 | Cn1c2nc(Cc3cc[nH]n3)sc2c2cnn(CCc3cccnc3)c(=O)c21 [Compound 136] | 301 to 800
15 | Cn1c2nc([S+](C)[O-])sc2c2cnn(Cc3ccnc(N)c3)c(=O)c21 (stereo not drawn) [Compound 29] | 301 to 800
16 | Cn1c2nc(Cc3ccc(Cl)nc3)sc2c2cnn(Cc3cccc4[nH]ncc34)c(=O)c21 [Compound 55] | > 800
17 | COC(=O)C(c1cc[nH]n1)c1nc2c(s1)c1cnn(Cc3cccc4[nH]ncc34)c(=O)c1n2C (stereo not drawn) [Compound 58] | > 800
18 | Cc1nc2c(s1)c1cnn(CCO)c(=O)c1n2C [Compound 25] | > 800

Row | SMILES | AC50 [nM]
19 | Cn1c2nc(Cc3cc[nH]n3)sc2c2cnn(Cc3ccc(C#N)cn3)c(=O)c21 [Compound 118] | 301 to 800
20 | Cn1c2nc(NC(=O)Cc3cc[nH]n3)sc2c2cnn(Cc3cccc4[nH]ncc34)c(=O)c21 [Compound 64] | > 800
21 | Cn1c2nc(Cc3cc[nH]n3)sc2c2cnn(Cc3cccc(N)n3)c(=O)c21 [Compound 74] | < 300
22 | Cn1c2nc(Cc3cc[nH]n3)sc2c2cnn(Cc3[nH]ncc3Cl)c(=O)c21 [Compound 103] | < 300
23 | Cn1c2nc(Cc3cc[nH]n3)sc2c2cnn(Cc3ncsc3C(F)(F)F)c(=O)c21 [Compound 95] | > 800
24 | Cn1c2nc(Cn3ccnc3)sc2c2cnn(Cc3ccnc(N)n3)c(=O)c21 [Compound 144] | > 800
25 | Cn1c2nc(Cc3cncnc3)sc2c2cnn(Cc3cccc4[nH]ncc34)c(=O)c21 [Compound 56] | > 800
26 | Cn1c2nc(Cc3cc[nH]n3)sc2c2cnn(Cc3ccc(C(N)=O)cn3)c(=O)c21 [Compound 119] | 301 to 800
27 | Cc1nc2c(s1)c1cnn(Cc3ccc([N+](=O)[O-])cc3)c(=O)c1n2C [Compound 17] | > 800
28 | Cn1c2nc(Cc3ccncc3)sc2c2cnn(Cc3cccc4[nH]ncc34)c(=O)c21 [Compound 57] | > 800
29 | Cn1cc(CN)c(Cn2ncc3c4sc(Cc5cc[nH]n5)nc4n(C)c3c2=O)n1 [Compound 124] | 301 to 800
30 | Cn1c2nc(Cc3cc[nH]n3)sc2c2cnn(Cc3cncs3)c(=O)c21 [Compound 70] | < 300
31 | Cn1nncc1Cn1ncc2c3sc(Cc4cc[nH]n4)nc3n(C)c2c1=O [Compound 108] | < 300
32 | Cc1nc2c(s1)c1cnn(CCCO)c(=O)c1n2C [Compound 15] | > 800
33 | Cn1c2nc(SCc3ccccc3)sc2c2cnn(Cc3cccc4[nH]ncc34)c(=O)c21 [Compound 45] | 301 to 800
34 | CC(=O)NC(c1cc[nH]n1)c1nc2c(s1)c1cnn(Cc3cccc4[nH]ncc34)c(=O)c1n2C (stereo not drawn) [Compound 62] | > 800
35 | Cn1c2nc(Cc3cc[nH]n3)sc2c2cnn(Cc3c[nH]nn3)c(=O)c21 [Compound 89] | < 300
36 | Cn1cc(Cc2nc3c(s2)c2cnn(Cc4cccc(C(N)=O)c4)c(=O)c2n3C)cn1 [Compound 128] | < 300

Reference: patent US11872225B2, “Pyruvate kinase modulators and use thereof” (Agios Pharmaceuticals, Inc., priority 2017, dated 2024)
